Key:
Plasma Cortisol = assay: Feedlot steers: plasma cortisol; type: in vivo, steers (cattle); settings: 150 days
Text: (§1) Seventy-two medium-frame steers, with an average weight of 578 lbs., were allotted to 12 pens of 6 animals each. A common basal diet was fed ad libitum to all cattle. This consisted of 48.9% cracked corn, 24.4% ground corn cobs, 17.8% expeller Soybean meal, 7.0% molasses (liquid), 1.3% limestone, 0.25% dicalcium phosphate, 2% salt, 0.02% trace mineral premix, and 0.1% vitamin A premix for the first 58 days of the experiment, and was changed to 54.3% cracked corn and 12.8% expeller soybean meal for the remaining 103 days of the experiment. Three pens were assigned to each treatment. The treatments consisted of four levels of Ca-KIC in a pelleted supplement: 0%, 0.02%, 0.07%, and 0.20% of the basal diet (0.05% control pellets, 0.04% KIC pellets, 0.14% KIC pellets, and 0.40% KIC pellets). The pellets were preweighted and top-dressed on the basal diet twice daily. After 58 days, the cattle on the 0.20% KIC were removed from the experiment. The cattle were not implanted with a growth promotant nor were ionophores included in the diet. […] Loin eye area and fat thickness over the loin were measured on each carcass. […]
KIC was obtained from SOBAC, Paris, France. Zein was purchased from Freeman Industries, Tuckahoe, N.Y. Each experiment was statistically analyzed by analysis of variance with three pens per treatment. […]

[1] = Feedlot steers: performance and carcass; type: in vivo, steers (cattle)
Text: Seventy-two medium-frame steers, with an average weight of 578 lbs., were allotted to 12 pens of 6 animals each. A common basal diet was fed ad libitum to all cattle. This consisted of 48.9% cracked corn, 24.4% ground corn cobs, 17.8% expeller Soybean meal, 7.0% molasses (liquid), 1.3% limestone, 0.25% dicalcium phosphate, 2% salt, 0.02% trace mineral premix, and 0.1% vitamin A premix for the first 58 days of the experiment, and was changed to 54.3% cracked corn and 12.8% expeller soybean meal for the remaining 103 days of the experiment. Three pens were assigned to each treatment. The treatments consisted of four levels of Ca-KIC in a pelleted supplement: 0%, 0.02%, 0.07%, and 0.20% of the basal diet (0.05% control pellets, 0.04% KIC pellets, 0.14% KIC pellets, and 0.40% KIC pellets). The pellets were preweighted and top-dressed on the basal diet twice daily. After 58 days, the cattle on the 0.20% KIC were removed from the experiment. The cattle were not implanted with a growth promotant nor were ionophores included in the diet. The cattle were placed in the feedlot and fed a growing ration for 5 weeks prior to the start of the experiment. The cattle were weighed on 2 consecutive days at the beginning and end of the experiment, and every 14 days during the trial. The cattle were sold through a commercial beef processing plant when they were approaised by visual examination to grade Choice. Loin eye area and fat thickness over the loin were measured on each carcass. Quality and yield grades, and percent kidney, heart, and lepvic (KHP) fat were estimated by the federal graders.
Therefore, an attempt was made to protect KIC from ruminal degradation. KIC pellets, resistant to rumen degradation, were made by mixing zein, ethanol, KIC, limestone, bentonite and water in a ratio of 8.3:7.4:5.2:3:2:1. This mixture was extruded through a die of 15 mm directly into a vat of liquid nitrogen. The shattered pellets were spread out and allowed to air-dry for two days. The dried pellets were coated with zein (2% w/w) by spraying with a 30% zein solution made in 80% ethanol. The pellets again were air-dried. Control pellets were made similar to the KIC pellets except that the mixture was zein, limestone, ethanol, bentonite and water in a ratio of 12:12:7.5:2.7:1. When KIC pellets were placed in the rumen (nylon bag technique), 45% of the KIC added was present in the bags after 36 hr of rumen digestion.
KIC was obtained from SOBAC, Paris, France. Zein was purchased from Freeman Industries, Tuckahoe, N.Y. Each experiment was statistically analyzed by analysis of variance with three pens per treatment.

[2] = Feedlot steers: death, sickness, condemned livers; type: in vivo, steers (cattle)
Text: as §1, with “diet. The cattle were placed in the feedlot and fed a growing ration for 5 weeks prior to the start of the experiment. The cattle were weighed on 2 consecutive days at the beginning and end of the experiment, and every 14 days during the trial.” for “diet.”

[3] = Laying hens: egg production and egg yolk cholesterol; type: in vivo, laying hens (chickens)
Experimental: Laying hens (69 weeks of age) were randomly assigned to either a control diet or a diet containing 0.2 wt % KIC (Na). For the next 28 days feed consumption was recorded and eggs collected. Eggs were weighed and analyzed for egg yolk cholesterol. The feed composition is shown in Table C and the results in Table D. The total protein was about 18% on a dry matter basis, and the amount of leucine was about 9% of the protein. The control diet was the same except for the omission of the KIC.

Compound `CC(C)CC(=O)C(=O)O` [KIC, alpha-ketoisocaproate] has a Plasma Cortisol (Plasma Cortisol; .02% dietary KIC (0%: 4.08)) of 3.74 µg/dL, a Plasma Cortisol (Plasma Cortisol; .07% dietary KIC (0%: 4.08)) of 3.2 µg/dL and a Feed conversion improvement ([1]; 161-day trial, 0.02% KIC, NS) of 8%. The daily gain increase ([1]; 161-day trial, 0.02% KIC, p<0.01) was 14%, the daily gain increase ([1]; 161-day trial, 0.07% KIC, (NX)) was 7% and the Feed conversion improvement ([1]; 161-day trial, 0.07% KIC, NS) was 6%. It also gave a Daily gain ([1]; 58 days, 0.07% dietary KIC (0%: 2.80)) of 3.12 lb, a Feed/Gain ([1]; 58 days, 0.07% dietary KIC (0%: 5.7)) of 5.2 and a Daily intake ([1]; 58 days, 0.07% dietary KIC (0%: 16.0)) of 16.3 lb DM/day. The Ending wt. ([1]; 58 days, 0.07% dietary KIC (0%: 756)) was 770 lb, the Daily gain ([1]; 58 days, 0.20% dietary KIC (0%: 2.80)) was 3.19 lb and the Feed/Gain ([1]; 58 days, 0.20% dietary KIC (0%: 5.7)) was 5.2. The Daily intake ([1]; 58 days, 0.20% dietary KIC (0%: 16.0)) was 16.3 lb DM/day, the Ending wt. ([1]; 58 days, 0.20% dietary KIC (0%: 756)) was 779 lb and the Daily gain ([1]; 58 days, % dietary KIC printed 0.2 (0%: 2.80), * p<.1) was 3.36 lb. For the same compound, the Feed/Gain ([1]; 58 days, % dietary KIC printed 0.2 (0%: 5.7), ** p<.05) was 5.0, the Daily intake ([1]; 58 days, % dietary KIC printed 0.2 (0%: 16.0)) was 16.8 lb DM/day and the Ending wt. ([1]; 58 days, % dietary KIC printed 0.2 (0%: 756)) was 786 lb. It also gave a Daily gain ([1]; 161 days, 0.02% dietary KIC (0%: 2.66), *** p<.01) of 3.03 lb, a Feed/Gain ([1]; 161 days, 0.02% dietary KIC (0%: 8.0)) of 7.4 and a Daily intake ([1]; 161 days, 0.02% dietary KIC (0%: 21.2)) of 22.6 lb DM/day. The Ending wt. ([1]; 161 days, 0.02% dietary KIC (0%: 1016)) was 1068 lb, the Daily gain ([1]; 161 days, 0.07% dietary KIC (0%: 2.66)) was 2.85 lb and the Feed/Gain ([1]; 161 days, 0.07% dietary KIC (0%: 8.0)) was 7.5. It also gave a Daily intake ([1]; 161 days, 0.07% dietary KIC (0%: 21.2)) of 21.6 lb DM/day, an Ending wt. ([1]; 161 days, 0.07% dietary KIC (0%: 1016)) of 1035 lb and a Feed conversion improvement ([1]; first 58 days, 0.02% KIC, p<0.05) of 13%. For the same compound, the daily gain increase ([1]; first 58 days, 0.02% KIC, p<0.07) was 20%, the daily gain increase ([1]; first 58 days, 0.07% KIC, NS) was 11% and the Feed conversion improvement ([1]; first 58 days, 0.07% KIC, p<0.17) was 9%. The Feed conversion improvement ([1]; first 58 days, 0.20% KIC, p<0.11) was 10%, the daily gain increase ([1]; first 58 days, 0.20% KIC, p<0.18) was 14% and the Feed conversion improvement ([1]; long-term trial, summary) was “up to 8%”. For the same compound, the daily gain increase ([1]; long-term trial, summary) was “up to 14%”, the “animals that died or were treated for sickness” value ([2]; KIC-treated groups (control: one died, one treated)) was “no animals” and the condemned liver ([2]; bovine, in vivo) was “one”. The “Av. Eggs” value ([3]; 0.2 wt % KIC (Na), 28 days (control 1.105)) was 1.233 kg./hen, the “Average No. Eggs/Hen” value ([3]; 0.2 wt % KIC (Na), 28 days (control 17.7)) was 19.5 and the “Feed Average” value ([3]; 0.2 wt % KIC (Na), 28 days (control 109)) was 109 gms/hen/day. For the same compound, the “Avg. yolk Cholesterol” value ([3]; 0.2 wt % KIC (Na), 28 days (control 1068)) was 996 mg/100 gms, the “Av. Eggs (kg./hen), % Change” value ([3]; vs control) was “+11.1%” and the “Average No. Eggs/Hen, % Change” value ([3]; vs control) was “+10.2%”. The “Avg. yolk Cholesterol, % Change” value ([3]; vs control) was -7% and the “Feed Average, % Change” value ([3]; vs control) was 0%.
